Test systems include A498 renal; BT-549 breast; COLO 205 colon; HCC-2998 colon; HS 578T breast; MALME-3M melanoma; RPMI-8226 leukemia; SF-539 CNS; T-47D breast; UACC-257 melanoma.
Common to all, as to assay: NCI-60 cell line screen, 48 h

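Exposure lasted 48 hours, with cells grown in 96-well plates and compounds tested at five concentrations. At the GI50, growth is halved. At the TGI there is no net growth.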 Where only a bound is given, the exact number is not on record here.

As for `O=C1C(=O)c2cccnc2-c2ncccc21`, the GI50 with A498 renal is 0.199 µM; in the experiment on BT-549 breast it was 0.242 µM; with COLO 205 colon, 1.03 µM; in the experiment on HCC-2998 colon, 1.32 µM; with HS 578T breast, 0.244 µM; in the experiment on MALME-3M melanoma, 0.215 µM. In addition, the GI50 is 0.0459 µM in the experiment with RPMI-8226 leukemia, 0.184 µM in the experiment with SF-539 CNS, 0.205 µM with T-47D breast and 0.268 µM in the experiment on UACC-257 melanoma. Moreover, the TGI in the experiment with A498 renal was determined as 2.21 µM; in the experiment with BT-549 breast, 1.19 µM; in the experiment with COLO 205 colon, 2.51 µM; in the experiment with HCC-2998 colon, 2.92 µM; with HS 578T breast, 1.08 µM; with MALME-3M melanoma, 0.769 µM. Besides, the TGI amounted to 0.399 µM in the experiment on RPMI-8226 leukemia, 0.502 µM with SF-539 CNS, 0.461 µM in the experiment on T-47D breast and 0.924 µM in the experiment on UACC-257 melanoma.
With `CCN(CC)c1ccc(C(=O)c2ccc(N(CC)CC)cc2)cc1`, the GI50 was 0.335 µM in the experiment with A498 renal; 0.629 µM in the experiment on BT-549 breast; 0.515 µM with COLO 205 colon; 1.26 µM in the experiment with HCC-2998 colon; 0.237 µM with HS 578T breast; 0.334 µM with MALME-3M melanoma. Further, the GI50 in the experiment with RPMI-8226 leukemia is 0.519 µM; in the experiment with SF-539 CNS it was 0.436 µM; in the experiment with T-47D breast, 0.789 µM; in the experiment on UACC-257 melanoma it was 0.461 µM. Also, the TGI in the experiment on A498 renal turned out to be 4.14 µM; in the experiment on BT-549 breast, 16.5 µM; in the experiment with COLO 205 colon it was 3.44 µM; in the experiment on HCC-2998 colon it was 35.4 µM; in the experiment on HS 578T breast it was 1 µM; in the experiment on MALME-3M melanoma, 17.4 µM. The TGI in the experiment on RPMI-8226 leukemia was 6.25 µM; in the experiment on SF-539 CNS, 10.5 µM; in the experiment with T-47D breast it was > 100 µM; in the experiment with UACC-257 melanoma, > 59.2 µM.
As for `C=C(c1ccccc1)[C@@]1(O)CC[C@@H]1N(CC#N)Cc1ccccc1`, the TGI was > 100 µM with A498 renal; 37.1 µM in the experiment on BT-549 breast; 30.4 µM in the experiment on COLO 205 colon; 44.3 µM in the experiment on HCC-2998 colon; 65 µM in the experiment with HS 578T breast; 27.5 µM with MALME-3M melanoma. For the same compound, the TGI was > 67 µM with RPMI-8226 leukemia, 63.1 µM in the experiment with SF-539 CNS, 38.2 µM in the experiment on T-47D breast and 34 µM in the experiment with UACC-257 melanoma.
As to `C=CC(Cl)(CBr)CCC(Br)C(C)(C)Cl` (stereo not given), the TGI with A498 renal was 27.2 µM; in the experiment with BT-549 breast, 38.6 µM; with COLO 205 colon, 29.5 µM; in the experiment on HCC-2998 colon, 28.8 µM; in the experiment with HS 578T breast, > 100 µM; with MALME-3M melanoma, 35.8 µM. For the same compound, the TGI in the experiment on RPMI-8226 leukemia amounted to 29.5 µM; in the experiment with SF-539 CNS, 30.5 µM; in the experiment on T-47D breast it was 39.6 µM; in the experiment on UACC-257 melanoma it was 27.5 µM.
As to `C[N+]1=C(/C=C\C=C\c2ccccc2)C(C)(C)c2ccccc21`, the GI50 in the experiment with A498 renal is 3.08 µM; in the experiment on BT-549 breast, 2.34 µM; in the experiment on COLO 205 colon it was 0.686 µM; in the experiment on HCC-2998 colon it was 3.28 µM; in the experiment on HS 578T breast it was 4.6 µM; in the experiment with MALME-3M melanoma, 1.87 µM. In addition, the GI50 is 1.22 µM with RPMI-8226 leukemia, 2.59 µM in the experiment on SF-539 CNS, 0.966 µM with T-47D breast and 1.69 µM in the experiment with UACC-257 melanoma. Moreover, the TGI with A498 renal stood at 11.3 µM; with BT-549 breast, 9.29 µM; in the experiment on COLO 205 colon, 2.26 µM; with HCC-2998 colon, 14.9 µM; in the experiment with HS 578T breast, 22.4 µM; in the experiment on MALME-3M melanoma, 4.37 µM. For the same compound, the TGI in the experiment with RPMI-8226 leukemia stood at 6.53 µM; in the experiment with SF-539 CNS it was 7.57 µM; in the experiment with T-47D breast, 5.36 µM; with UACC-257 melanoma it was 4.52 µM.
As to `Cc1ncc(C(=O)Nc2ccc(CN3CCN(C)CC3)c(C(F)(F)F)c2)cc1C#Cc1cnc(N)cc1C#N`, the GI50 in the experiment on A498 renal was 0.24 µM; in the experiment with BT-549 breast, 1.36 µM; with COLO 205 colon it was 0.0538 µM; in the experiment with HCC-2998 colon it was 1.11 µM; with HS 578T breast, 0.204 µM; in the experiment with MALME-3M melanoma it was 0.0196 µM. In addition, the GI50 with RPMI-8226 leukemia was 0.338 µM; in the experiment on SF-539 CNS it was 0.542 µM; in the experiment on T-47D breast, > 16.7 µM; in the experiment with UACC-257 melanoma it was 0.288 µM. The TGI with A498 renal was determined as 0.872 µM; in the experiment on BT-549 breast, 3.58 µM; in the experiment on COLO 205 colon, 2.32 µM; in the experiment with HCC-2998 colon it was 3.39 µM; in the experiment with HS 578T breast, 1.72 µM; with MALME-3M melanoma, 0.125 µM. Moreover, the TGI with RPMI-8226 leukemia is 3.5 µM; in the experiment on SF-539 CNS, 2.93 µM; with T-47D breast, > 16.7 µM; in the experiment with UACC-257 melanoma it was 3.12 µM.
Regarding `CCN1CCN(CC(=O)N2c3cccc4cccc(c34)N(C(=O)CN3CCN(CC)CC3)C2c2cn(-c3ccccc3)nc2-c2cccc([N+](=O)[O-])c2)CC1`, the GI50 in the experiment with A498 renal was 0.49 µM; in the experiment with BT-549 breast, 1.67 µM; in the experiment with COLO 205 colon it was 1.72 µM; with HCC-2998 colon, 1.83 µM; with HS 578T breast, 1.81 µM; in the experiment on MALME-3M melanoma, 1.63 µM. The GI50 was 1.59 µM with RPMI-8226 leukemia, 1.56 µM in the experiment on SF-539 CNS, 1.66 µM with T-47D breast and 1.85 µM with UACC-257 melanoma. In addition, the TGI in the experiment with A498 renal worked out at 2.11 µM; in the experiment on BT-549 breast, 3.24 µM; in the experiment with COLO 205 colon, 3.39 µM; with HCC-2998 colon, 3.43 µM; in the experiment with HS 578T breast it was 4.17 µM; with MALME-3M melanoma it was 3.13 µM. The TGI was 3.94 µM in the experiment with RPMI-8226 leukemia, 2.94 µM in the experiment with SF-539 CNS, 3.7 µM in the experiment with T-47D breast and 3.68 µM in the experiment on UACC-257 melanoma.
Consider `CC(C)CC(NC(=O)OC(C)(C)C)C(=O)Nc1ccc(Nc2nc(F)nc(-c3c4ccccc4cn3C)n2)cc1` (stereo not given), for which the TGI was > 100 µM with A498 renal; > 100 µM in the experiment on BT-549 breast; 49.3 µM with COLO 205 colon; 40.2 µM in the experiment with HCC-2998 colon; > 100 µM with HS 578T breast; > 100 µM in the experiment with MALME-3M melanoma. For the same compound, the TGI in the experiment with RPMI-8226 leukemia is 22.4 µM; in the experiment with SF-539 CNS it was > 100 µM; with T-47D breast it was > 100 µM; in the experiment with UACC-257 melanoma it was > 100 µM.
